Experimental data as given in US20260072021A1, “SYSTEM, METHOD, AND APPARATUS FOR MICRONEEDLE ARRAY-BASED IMM[…] MULTIPLEX DETECTION OF BIOMARKERS” (The General Hospital Corporation, priority 2022, published 2026).

Tests used:
[1] = Pharmacokinetic study: blood concentrations of cocaine and BZE in mice after IP cocaine (LC-MS); type: in vivo; settings: cocaine 1.5 mg/Kg IP, blood sampled at 0, 0.5, 1 and 5 min post-injection
Experimental: Panel A. Time-dependent blood concentrations of COC and BZE in mice receiving 1.5 mg/Kg cocaine per mouse via IP injection. Panel B. Experimental setup of in vivo detection of circulating COC/BZE using MN-based aptasensor on a B6 black mouse. Panel C. Time-dependent fluorescence intensity of an individual MN that pierces into the mouse skin.
An optical fiber of 500 um in diameter was engineered including 6 emission light collection fibers each at 125 um in diameter, surrounding the single excitation light fiber at the center (FIGS. 13a & 13c). The excitation laser (532-589 nm) is administered directly to the upper dermis via the fiber and transparent MNA to induce skin capillary leakage or extravasation of biomarkers. […] To validate this, cocaine was IP administered at 1.5 mg/Kg per mouse and blood was sampled at 0, 0.5, 1, and 5 min, post-injection. […] When the MNA aptasensor was inserted into the black B6 mice receiving 1.5 mg/kg cocaine intraperitoneally and illuminated with 532 nm laser on the dorsal skin (FIG. 15B), a significant growth of fluorescence intensity as a function of time due to displacement of QDNA by cocaine was clearly seen on individual microneedles (FIG. 15C), confirming the ability of the aptasensor to detect the illicit drug in real time. […]

[2] = humans; cited from earlier work

| Compound | blood concentration over time [1] | cocaine concentration in blood [2] |
| --- | --- | --- |
| COC(=O)[C@H]1[C@@H](OC(=O)c2ccccc2)C[C@@H]2CC[C@H]1N2C [cocaine] | slightly increased over the 5 min | 0.06 to 0.1 mg/L |
| CN1[C@H]2CC[C@@H]1[C@@H](C(=O)O)[C@@H](OC(=O)c1ccccc1)C2 [BZE, benzoylecgonine] | increasing sharply at the first 1 min and then stayed in plateau | – |
